According to publication PMC5078025, “Necrosis-inducing peptide has the beneficial effect on killing tumor cells through neuropilin (NRP-1) targeting” (Oncotarget, 2016):
Bridge positions count the residues as written; N and C are the ends. Ends that are not written are not given here. Peptide text beside a SMILES is read from it.

Legend:
[1] = Serum AST and ALT assays; assay type: in vivo, mice
Description: To assay the activities of ALT and AST, mouse serum was prepared by centrifuging blood at 2500 × g for 15 minutes at 4°C. Enzyme activities were determined, according to the manufacturer's instructions. […]
the first injection of the peptides. […]
necrosis in tail vein upon injection.
“Slow” means not moving around in the cage.
“Normal” means normally moving around in the cage.
(§1) Abbreviation: NR; no regression, ND; not determined. […]
aminotransferase) in mice treated with TU17:MTD
Treatment Serum aminotransferase (karman units/ml)
White blood Hemoglobin Platelets Neutrophils Lymphocyts Monocytes
Treatments cells (g/dl) (×103 cell/μl) (%) (%) (%)

[2] = tested on: BALB/c mice; test: Toxicity and movement activity after i.v. injection; conditions: for Movement Activities: BALB/c (around 20 gm) mice, i.v. single dose 75 μl of 1 mM, within 30 minutes; for toxicity by mouse movements: BALB/c mice, i.v. single dose 75 μl of 1 mM per mouse, movements within 30 minutes, observed up to one week
Description: To design a MTD peptide anti-cancer drug, the MTD peptide was fused to various known tumor-homing motifs through its N-terminal or C-terminal region, and a linker was introduced between these two motifs to impart flexibility and minimize steric hindrance (Figure 1A, Supplementary Table S1). The MTD peptides fused with tumor-homing motifs (hereafter designated TU:MTDs) were synthesized as linear or cyclic entities using L-amino acids (Supplementary Table S1), and were evaluated for their killing activity using CT26 cells in vitro (Supplementary Figure S1). […] Thus, BALB/c mouse movements were also evaluated within 30 minutes of the intravenous injection of a single dose of 75 μl of 1 mM TU:MTDs per mouse. […] We also searched for a TU:MTD with a potent in vivo effect by observing tumor volumes in three BALB/c mice bearing CT26 adenocarcinoma that were injected with 100 μl of 1 mM TU:MTDs per day for 2 or 3 consecutive days (Figure 1B). […] The tumor-homing motif of TU17:MTD has a “RPARPAR” sequence containing the C-end rule (CendR) element that has known to bind to neuropilin-1 (NRP-1), although the “RPARPAR” sequence is located at the N-terminus of the MTD rather than at the C-terminus. […]
1 mM) were i.v. injected into BALB/c (around 20 gm) mice at a single dose. “Slow” means not moving around in the cage.
“Normal” means normally moving around in the cage. “Toxic” means necrosis in tail vein within 2 ~ 3 days after injection.
as §1

[3] = tested on: CT26 cells; test: XTT cell viability / killing activity in CT26 cells; assay type: cell-based; conditions: CT26 cells, TU:MTDs 0 ~ 20 μM, 30 minutes, XTT
Description: Figure 1 Identification of TU17:MTD as a tumor targeting peptide (A) Schematic diagram of the fusion peptides consisting of the tumor-homing motif, linker, and mitochondrial targeting domain (MTD). (B) Tumors were generated over 2 weeks after s.c. injection of CT26 cells into the backs of BALB/c mice. When tumor volumes reached palpable size, the indicated TU:MTDs (100 μl of 1 mM TU:MTDs) or PBS were administrated i.v. twice or three times. […] Arrows indicate the points of peptide injection. P values < 0.02 (control group vs TU17:MTD at day 5, 6, 7, 8, and 9) (C) HCT116, HeLa, A549, MCF-7, PC3, and BJAB cells were treated with TU17:MTD (0 ~ 20 μM) for 30 minutes, and cell viability was monitored using XTT assays. *P < 0.05 (D) Primary splenocytes and macrophages were treated with TU17:MTD (0 ~ 20 μM) for 30 minutes, and cell viability was monitored by XTT assay. *P < 0.05 (E) CT26 cells were treated with R8:MTD, TU17:MTD, TU17-2:MTD or TU17:MTD^4A (0 ~ 40 μM) for 4 hours, and cell viability was monitored by XTT assay. Results in C to E are expressed as means ± SD (triplicates), and are representative of at least two independent experiments. P values are for experimental groups versus controls and were calculated using Dunnett's t-test. *P < 0.05.
Figure 5 Anti-NRP-1 antibody blocks TU17:MTD-induced necrosis (A) CT26 cells (2 × 10^4 cells/cm^2) were treated with TU17:MTD-FAM (500 nM) peptide or TU17^mut:MTD (500 nM) peptide. […] The viability was measured by using the XTT assay. *P < 0.05, **P < 0.01. […] The percentage of FAM-positive cells (%) were determined (n = over 200 cells). *P < 0.05, ***P < 0.001.
Cells were cultured in 96 well plates (2 × 10^5) overnight and treated with TU:MTDs. Cell viabilities were assessed using a XTT-based colorimetric assay kit, according to the manufacturer's instructions. […]
Supplementary FigureS1: Killing activity of TU:MTDs in CT26 cells. CT26 cells were treated with TU:MTDs (0 ~ 20 μM) for 30 minutes, and cell viability was monitored using XTT assays. […]

[4] = tested on: various tumor cells; conditions: four leucine residues of MTD replaced by alanine; cited from earlier work
Excerpt: We reported a 10-residue long, pro-necrotic peptide derived from the mitochondrial targeting domain (MTD) located in the C-terminal region of Noxa, a BH-3 only protein of Bcl-2 family. The MTD region of Noxa is responsible not only for mitochondrial targeting of Noxa but also for mitochondrial fragmentation induced by Noxa. Two […]) in the region of MTD play a key role in mitochondrial fragmentation induced by Noxa. […] Therefore, we determined whether TU17:MTD could discriminate tumor and normal cells in vitro.

[5] = CCl4-treated mice, chemically-induced liver damage model

ClC(Cl)(Cl)Cl [CCl4]
Serum aminotransferase ALT [1, 5]: 558.8 ± 7.2 karman units/ml | Serum aminotransferase AST [1, 5]: 42.8 ± 3.7 karman units/ml | serum levels of AST and ALT ([1]; mice): substantially higher

CC[C@H](C)[C@H](NC(=O)[C@H](CC(C)C)NC(=O)[C@H](CC(N)=O)NC(=O)[C@H](CC(C)C)NC(=O)[C@H](CC(C)C)NC(=O)[C@H](CCCCN)NC(=O)CNC(=O)CNC(=O)[C@H](CS)NC(=O)[C@H](CCCNC(=N)N)NC(=O)CNC(=O)[C@H](CC(N)=O)NC(=O)[C@@H](N)CS)C(=O)N[C@@H](CO)C(=O)N[C@@H](CCCCN)C(=O)N[C@@H](CC(C)C)C(=O)N[C@@H](Cc1ccccc1)C(=O)O [TU1:MTD] (H-CNGRCGGKLLNLISKLF-OH)
Movement Activities [2]: Slow | toxicity by mouse movements [2]: toxic

CC[C@H](C)[C@H](NC(=O)[C@H](CC(C)C)NC(=O)[C@H](CC(N)=O)NC(=O)[C@H](CC(C)C)NC(=O)[C@H](CC(C)C)NC(=O)[C@H](CCCCN)NC(=O)CNC(=O)CNC(=O)[C@H](CS)NC(=O)CNC(=O)[C@H](CCCNC(=N)N)NC(=O)[C@@H](NC(=O)[C@H](CCCNC(=N)N)NC(=O)[C@H](CCCCN)NC(=O)[C@H](CC(N)=O)NC(=O)CNC(=O)[C@@H](N)CS)[C@@H](C)O)C(=O)N[C@@H](CO)C(=O)N[C@@H](CCCCN)C(=O)N[C@@H](CC(C)C)C(=O)N[C@@H](Cc1ccccc1)C(=O)O [TU3:MTD] (H-CGNKRTRGCGGKLLNLISKLF-OH)
Movement Activities [2]: Normal | toxicity by mouse movements [2]: no apparent toxicities

CC[C@H](C)[C@H](NC(=O)[C@H](CC(C)C)NC(=O)[C@H](CC(N)=O)NC(=O)[C@H](CC(C)C)NC(=O)[C@H](CC(C)C)NC(=O)[C@H](CCCCN)NC(=O)[C@H](CS)NC(=O)[C@H](CC(=O)O)NC(=O)[C@@H]1CCCN1C(=O)CNC(=O)[C@H](CCCCN)NC(=O)[C@H](CC(=O)O)NC(=O)[C@H](CCCNC(=N)N)NC(=O)CNC(=O)[C@@H](N)CS)C(=O)N[C@@H](CO)C(=O)N[C@@H](CCCCN)C(=O)N[C@@H](CC(C)C)C(=O)N[C@@H](Cc1ccccc1)C(=O)O [TU6:MTD] (H-CGRDKGPDCKLLNLISKLF-OH)
Movement Activities [2]: Normal | toxicity by mouse movements [2]: no apparent toxicities

CC[C@H](C)[C@H](NC(=O)[C@H](CC(C)C)NC(=O)[C@H](CC(N)=O)NC(=O)[C@H](CC(C)C)NC(=O)[C@H](CC(C)C)NC(=O)[C@@H](N)CCCCN)C(=O)N[C@@H](CO)C(=O)N[C@@H](CCCCN)C(=O)N[C@@H](CC(C)C)C(=O)N[C@@H](Cc1ccccc1)C(=O)N[C@@H](CS)C(=O)NCC(=O)N[C@@H](CCCNC(=N)N)C(=O)N[C@@H](CC(=O)O)C(=O)N[C@@H](CCCCN)C(=O)NCC(=O)N1CCC[C@H]1C(=O)N[C@@H](CC(=O)O)C(=O)N[C@@H](CS)C(=O)O [TU7:MTD] (H-KLLNLISKLFCGRDKGPDC-OH)
toxicity by mouse movements [2]: no apparent toxicities

CC[C@H](C)[C@H](NC(=O)[C@H](CC(C)C)NC(=O)[C@H](CC(N)=O)NC(=O)[C@H](CC(C)C)NC(=O)[C@H](CC(C)C)NC(=O)[C@@H](N)CCCCN)C(=O)N[C@@H](CO)C(=O)N[C@@H](CCCCN)C(=O)N[C@@H](CC(C)C)C(=O)N[C@@H](Cc1ccccc1)C(=O)N[C@@H](CS)C(=O)NCC(=O)N[C@@H](CCCNC(=N)N)C(=O)N[C@@H](CC(=O)O)C(=O)N[C@@H](CCCCN)C(=O)N[C@@H](CCCNC(=N)N)C(=O)N[C@@H](CC(C)C)C(=O)N[C@@H](Cc1ccc(O)cc1)C(=O)N[C@@H](CC(=O)O)C(=O)N[C@@H](CS)C(=O)O [TU8:MTD] (H-KLLNLISKLFCGRDKRLYDC-OH)
cytotoxicity to CT26 cells in vitro [3]: not cytotoxic | Movement Activities [2]: Dead | toxicity by mouse movements [2]: highly toxic

CC[C@H](C)[C@H](NC(=O)[C@H](CC(C)C)NC(=O)[C@H](CC(N)=O)NC(=O)[C@H](CC(C)C)NC(=O)[C@H](CC(C)C)NC(=O)[C@H](CCCCN)NC(=O)[C@H](CS)NC(=O)[C@H](CC(=O)O)NC(=O)[C@@H]1CCCN1C(=O)CNC(=O)[C@H](CCCCN)NC(=O)[C@H](CC(=O)O)NC(=O)CNC(=O)[C@H](CCCNC(=N)N)NC(=O)[C@@H](N)CS)C(=O)N[C@@H](CO)C(=O)N[C@@H](CCCCN)C(=O)N[C@@H](CC(C)C)C(=O)N[C@@H](Cc1ccccc1)C(=O)O [TU9:MTD] (H-CRGDKGPDCKLLNLISKLF-OH)
Movement Activities [2]: Normal | toxicity by mouse movements [2]: no apparent toxicities

CGKRKGGKLLNLISKLF [TU19:MTD]
Movement Activities [2]: Normal | toxicity by mouse movements [2]: no apparent toxicities

CRGDKGGKLLNLISKLF [TU21:MTD]
Movement Activities [2]: Slow | toxicity by mouse movements [2]: toxic

KLLNLISKLF [MTD]
killing activity and mitochondrial targeting activity [4]: abolishes the killing activity and mitochondrial targeting activity

KLLNLISKLFCRGDKGPDC (disulfide 11-19 (inferred)) [TU10:MTD]
Movement Activities [2]: Slow | toxicity by mouse movements [2]: toxic

KLLNLISKLFGGCGKRK [TU20:MTD]
Movement Activities [2]: Normal | toxicity by mouse movements [2]: no apparent toxicities

KLLNLISKLFGGCRGDK [TU22:MTD]
Movement Activities [2]: Normal | toxicity by mouse movements [2]: no apparent toxicities

KLLNLISKLFGGRLLRLLRLLR [TU16:MTD]
Movement Activities [2]: Normal | toxicity by mouse movements [2]: no apparent toxicities

KLLNLISKLFGGRPARPAR [TU18:MTD]
Movement Activities [2]: Slow | toxicity by mouse movements [2]: toxic

RLLRLLRLLRGGKLLNLISKLF [TU15:MTD]
Movement Activities [2]: Slow | toxicity by mouse movements [2]: toxic

WDLAWMFRLPVGKLLNLISKLF [TU5:MTD]
Movement Activities [2]: Normal | toxicity by mouse movements [2]: no apparent toxicities

WIFPWIQLKLLNLISKLF [TU4:MTD]
Movement Activities [2]: Slow | toxicity by mouse movements [2]: toxic
